Measured values taken from US10766855B2, “Hydroxamate triterpenoid derivatives” (VIVACELL BIOTECHNOLOGY ESPANA S.L., priority 2016, dated 2020).

Tests used:
[1] = system: Erythropoietin (EPO); assay: Plasma erythropoietin (EPO) levels in mice (ELISA); type: in vivo, mouse; settings: C57BL/6 male mice, i.p., 4 hours after treatment; compound VII 30 and 60 mg/kg, Betulinic acid 60 mg/kg
Method: EPO in plasma measured using a mouse EPO ELISA kit in C57BL/6 male mice administered with compound VII (30 mg/kg or 60 mg/kg) or betulinic acid (BA) (60 mg/kg) intraperitoneally. […] Data are expressed as mean±SEM (n=3).
Erythropoietin (EPO) is one of the earliest described and most sensitive HIF target genes; being positively regulated at the transcription level. Here, the ability of compound VII to regulated EPO levels in vivo was examined. Sixteen-week-old C57BL/6 male mice were treated intraperitoneally (i.p.) with Betulinic Acid (60 mg/kg) or compound VII (30 mg/kg or 60 mg/kg). Blood samples were taken under general anaesthesia 4 hours after treatment and the circulating levels of EPO in plasma were quantified using a mouse EPO ELISA kit (R&D Systems) according to manufacturer's instructions. EPO values represent the mean±SEM (n=3).

[2] = system: Nrf2; assay: Nrf2 activation/inhibition in HaCaT-ARE-Luc cells; type: cell-based

With `C=C(C)[C@@H]1CC[C@]2(C(=O)NO)CC[C@]3(C)[C@H](CC[C@@H]4[C@@]5(C)CC[C@H](O)C(C)(C)[C@@H]5CC[C@]43C)[C@@H]12` [Compound VII, (3β) 3-Hydroxy-N-hydroxy-lup-20(29)-en-28-amide] the “circulating EPO plasma levels” value [1] was “strongly increased” and the IC50 [2] was > 50 µM.
